Results on seven molecules are retold here after BindingDB's records for doi:10.1016/j.bioorg.2017.04.001 (China Pharmaceutical University, 2017).

Molecules are shown by their SMILES.

The target of experiment [1] is Hepatocyte growth factor receptor (Homo sapiens, UniProt P08581). The experiment can be described thus: In Vitro c-Met and VEGFR-2 Enzyme Assay. To be noted: pH 7.4; 37 °C. How it is done:
(§1) Briefly, 20 μg/mL poly (Glu,Tyr) 4:1 (Sigma) was pre-coated in 96-well plates as a substrate. A 50 μL aliquot of 10 μmol/L ATP solution diluted in kinase reaction buffer (50 mmol/L HEPES [pH 7.4], 50 mmol/L MgCl2, 0.5 mmol/L MnCl2, 0.2 mmol/L Na3VO4, and 1 mmol/L DTT) was added to each well; 1 μL of various concentrations of indicated compounds diluted in 1% DMSO (v/v) (Sigma) was then added to each reaction well. DMSO (1%, v/v) was used as the negative control. The kinase reaction was initiated by the addition of purified tyrosine kinase proteins diluted in 49 μL of kinase reaction buffer. After incubation for 60 min at 37 °C, the plate was washed three times with phosphate-buffered saline (PBS) containing 0.1% Tween 20 (T-PBS). Anti-phosphotyrosine (PY99) antibody was then added. After a 30-min incubation at 37 °C, the plate was washed three times, and horseradishperoxidase-conjugated goat anti-mouse IgG was added. The plate was then incubated at 37 °C for 30 min and washed 3 times. A 100 μL aliquot of a solution containing 0.03% H2O2 and 2 mg/ml ophenylenediamine in 0.1 mol/L citrate buffer (pH 5.5) was added. The reaction was terminated by the addition of 50 μL of 2 mol/L H2SO4 as the color changed, and the plate was analyzed using a multi-well spectrophotometer (SpectraMAX 190, Molecular Devices) at 490 nm.

Experiment [2] has as its target Vascular endothelial growth factor receptor 2 (Homo sapiens, UniProt P35968). Briefly: In Vitro c-Met and VEGFR-2 Enzyme Assay. To be noted: pH 7.4; 37 °C. The method, then: as §1

The term IC50 denotes the concentration that gives 50% inhibition.

Sequence of Hepatocyte growth factor receptor (P08581 whole entry): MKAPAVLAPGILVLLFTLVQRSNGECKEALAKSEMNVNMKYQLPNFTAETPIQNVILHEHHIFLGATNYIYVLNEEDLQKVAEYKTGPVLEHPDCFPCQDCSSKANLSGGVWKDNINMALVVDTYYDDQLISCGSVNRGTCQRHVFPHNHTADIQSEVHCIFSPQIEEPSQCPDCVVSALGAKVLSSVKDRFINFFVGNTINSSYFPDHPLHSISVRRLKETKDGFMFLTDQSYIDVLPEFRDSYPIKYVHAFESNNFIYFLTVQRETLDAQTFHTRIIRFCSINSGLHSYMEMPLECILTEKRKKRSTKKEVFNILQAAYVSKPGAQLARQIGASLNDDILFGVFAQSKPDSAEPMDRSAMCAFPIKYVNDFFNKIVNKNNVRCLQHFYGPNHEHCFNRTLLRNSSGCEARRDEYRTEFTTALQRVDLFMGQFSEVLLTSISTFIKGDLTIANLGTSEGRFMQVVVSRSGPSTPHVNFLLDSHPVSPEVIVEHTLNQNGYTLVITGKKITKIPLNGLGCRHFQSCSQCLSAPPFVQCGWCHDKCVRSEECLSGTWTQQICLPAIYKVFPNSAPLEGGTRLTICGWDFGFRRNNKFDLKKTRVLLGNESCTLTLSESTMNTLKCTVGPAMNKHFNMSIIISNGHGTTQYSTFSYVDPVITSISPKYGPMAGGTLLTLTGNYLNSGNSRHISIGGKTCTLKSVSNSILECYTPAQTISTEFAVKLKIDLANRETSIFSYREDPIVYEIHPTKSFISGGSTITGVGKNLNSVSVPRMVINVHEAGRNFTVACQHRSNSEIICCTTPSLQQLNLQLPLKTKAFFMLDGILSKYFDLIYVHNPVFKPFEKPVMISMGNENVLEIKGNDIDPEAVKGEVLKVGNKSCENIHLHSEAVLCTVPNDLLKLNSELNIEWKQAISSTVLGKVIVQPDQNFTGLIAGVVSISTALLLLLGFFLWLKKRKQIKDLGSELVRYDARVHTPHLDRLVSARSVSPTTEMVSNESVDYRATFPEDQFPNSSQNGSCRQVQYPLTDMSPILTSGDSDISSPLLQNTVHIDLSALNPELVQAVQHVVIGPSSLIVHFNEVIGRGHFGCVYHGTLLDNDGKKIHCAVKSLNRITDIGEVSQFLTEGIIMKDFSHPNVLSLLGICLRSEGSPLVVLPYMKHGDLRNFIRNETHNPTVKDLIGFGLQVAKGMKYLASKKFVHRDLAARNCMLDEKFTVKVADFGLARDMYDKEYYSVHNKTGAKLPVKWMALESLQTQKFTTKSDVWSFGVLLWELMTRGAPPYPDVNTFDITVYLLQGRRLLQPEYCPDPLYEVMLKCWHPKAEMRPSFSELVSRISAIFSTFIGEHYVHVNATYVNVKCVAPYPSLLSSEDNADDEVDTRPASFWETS
Sequence of Vascular endothelial growth factor receptor 2 (P35968 whole entry): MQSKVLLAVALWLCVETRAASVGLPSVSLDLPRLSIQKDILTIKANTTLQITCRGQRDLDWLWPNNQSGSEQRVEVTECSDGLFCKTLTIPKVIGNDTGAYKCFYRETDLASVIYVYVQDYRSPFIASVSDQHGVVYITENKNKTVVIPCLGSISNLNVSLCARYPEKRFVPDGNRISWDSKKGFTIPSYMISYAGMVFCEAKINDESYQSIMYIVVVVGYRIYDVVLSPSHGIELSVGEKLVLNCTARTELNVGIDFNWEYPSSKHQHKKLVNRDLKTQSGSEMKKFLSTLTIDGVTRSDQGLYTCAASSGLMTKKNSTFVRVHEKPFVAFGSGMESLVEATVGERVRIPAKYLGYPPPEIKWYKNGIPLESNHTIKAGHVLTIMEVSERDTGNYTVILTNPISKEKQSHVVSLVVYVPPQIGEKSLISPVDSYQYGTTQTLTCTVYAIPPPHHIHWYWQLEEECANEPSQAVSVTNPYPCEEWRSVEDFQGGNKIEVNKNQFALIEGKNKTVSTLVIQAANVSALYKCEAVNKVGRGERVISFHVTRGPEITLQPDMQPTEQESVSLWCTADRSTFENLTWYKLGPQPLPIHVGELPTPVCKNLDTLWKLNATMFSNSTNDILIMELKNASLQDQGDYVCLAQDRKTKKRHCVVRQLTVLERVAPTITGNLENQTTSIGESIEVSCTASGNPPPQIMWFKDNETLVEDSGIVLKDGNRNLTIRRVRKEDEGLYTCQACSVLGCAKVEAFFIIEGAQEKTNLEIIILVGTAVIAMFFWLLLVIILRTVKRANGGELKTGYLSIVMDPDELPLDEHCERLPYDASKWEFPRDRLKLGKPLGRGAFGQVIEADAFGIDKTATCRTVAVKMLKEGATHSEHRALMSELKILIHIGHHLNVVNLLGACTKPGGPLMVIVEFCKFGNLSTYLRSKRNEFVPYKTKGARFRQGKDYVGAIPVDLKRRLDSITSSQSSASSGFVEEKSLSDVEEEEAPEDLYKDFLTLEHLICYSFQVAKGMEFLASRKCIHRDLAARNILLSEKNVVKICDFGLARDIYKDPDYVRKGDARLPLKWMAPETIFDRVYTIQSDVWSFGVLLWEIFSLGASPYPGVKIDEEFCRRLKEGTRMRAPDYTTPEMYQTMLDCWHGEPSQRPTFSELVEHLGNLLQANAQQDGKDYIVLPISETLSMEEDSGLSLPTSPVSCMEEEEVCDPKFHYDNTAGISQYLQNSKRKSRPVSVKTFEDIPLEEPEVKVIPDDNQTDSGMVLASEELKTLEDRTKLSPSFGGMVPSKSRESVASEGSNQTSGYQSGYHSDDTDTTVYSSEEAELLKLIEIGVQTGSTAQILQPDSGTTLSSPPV

In the case of `Cc1c(C(=O)Nc2ccc(Oc3ccnc(C(=O)NCCN4CCOCC4)c3)c(F)c2)c(=O)n(-c2ccccc2)n1C` [4-(4-(1,5-dimethyl-3-oxo-2-phenyl-2,3-dihydro-1H-pyrazole-4-carboxamido)-2-fluorophenoxy)-N-(2-morpholinoethyl)picolinamide (9l)], the concentration for half-maximal inhibition (IC50) is 510 nM in experiment [1] and 860 nM in experiment [2].

In the case of `Cc1c(C(=O)Nc2ccc(Oc3ccnc(C(=O)NCCCN4CCOCC4)c3)c(F)c2)c(=O)n(-c2ccccc2)n1C` [4-(4-(1,5-dimethyl-3-oxo-2-phenyl-2,3-dihydro-1H-pyrazole-4-carboxamido)-2-fluorophenoxy)-N-(3-morpholinopropyl) picolinamide (9h)], the IC50 in experiment [1] is 250 nM; in experiment [2], 840 nM.

Molecule `Cc1c(C(=O)Nc2ccc(Oc3ccnc(-c4nncn4CCCN4CCN(C)CC4)c3)c(F)c2)c(=O)n(-c2ccccc2)n1C` [N-(3-fluoro-4-((2-(4-(3-(4-methylpiperazin-1-yl)propyl)-4H-1,2,4-triazol-3-yl)pyridin-4-yl)oxy)phenyl)-1,5-dimethyl-3-oxo-2-phenyl-2,3-dihydro-1H-pyrazole-4-carboxamide (12d)] yielded a half-inhibitory concentration (IC50) in experiment [2] of 190 nM.

Consider `Cc1c(C(=O)Nc2ccc(Oc3ccnc(-c4nncn4CCCN(C)C)c3)c(F)c2)c(=O)n(-c2ccccc2)n1C` [N-(3-fluoro-4-((2-(4-(3-dimethylaminopropyl)-4H-1,2,4-triazol-3-yl)pyridin-4-yl)oxy)phenyl)-1,5-dimethyl-3-oxo-2-phenyl-2,3-dihydro-1H-pyrazole-4-carboxamide (12b)], for which the results for the IC50 in experiment [1] and in experiment [2] were 150 nM and 370 nM, respectively.

Take `Cc1c(C(=O)Nc2ccc(Oc3ccnc(-c4nncn4CCCN4CCOCC4)c3)c(F)c2)c(=O)n(-c2ccccc2)n1C` [N-(3-fluoro-4-((2-(4-(3-morpholinopropyl)-4H-1,2,4-triazol-3-yl)pyridin-4-yl)oxy)phenyl)-1,5-dimethyl-3-oxo-2-phenyl-2,3-dihydro-1H-pyrazole-4-carboxamide (12c)]: the IC50 in experiment [1] was 170 nM; in experiment [2], 520 nM.

With `CCN1CCN(C(=O)c2cc(Oc3ccc(NC(=O)c4c(C)n(C)n(-c5ccccc5)c4=O)cc3F)ccn2)CC1` [N-(4-((2-(4-ethylpiperazine-1-carbonyl)pyridin-4-yl)oxy-3-fluorophenyl)-1,5-dimethyl-3-oxo-2-phenyl-2,3-dihydro-1H-pyrazole-4-carboxamide (9j)], the figures for the IC50 in experiment [1] and in experiment [2] were 970 nM and over 1000 nM, respectively.

Take `Cc1c(C(=O)Nc2ccc(Oc3ccnc(C(=O)N4CCC(N5CCCCC5)CC4)c3)c(F)c2)c(=O)n(-c2ccccc2)n1C` [N-(4-((2-([1,4'-bipiperidine]-1'-carbonyl)pyridin-4-yl)oxy)-3-fluorophenyl)-1,5-dimethyl-3-oxo-2-phenyl-2,3-dihydro-1H-pyrazole-4-carboxamide (9o)]: the IC50 in experiment [1] is 330 nM; in experiment [2], 780 nM.
